What was measured:
[1] = The drug is tested on Z-019 corresponding to rat gut metagenome with ENA study accession number: PRJEB37062 and ENA sample accession number: ERS12561818 for biotransformation under anaerobic condition. The drug concentrations were measured over 9 timepoints collected between 0 and 24 hours of incubation by liquid-chromatography-coupled mass spectrometry (LC–MS); conditions: 2 µM
[2] = human gut metagenome, 24 h, 2 µM
[3] = The drug is tested on WLS-006 corresponding to human gut metagenome with ENA study accession number: PRJEB37062 and ENA sample accession number: ERS12561741 for biotransformation under anaerobic condition. The drug concentrations were measured over 9 timepoints collected between 0 and 24 hours of incubation by liquid-chromatography-coupled mass spectrometry (LC–MS); conditions: 2 µM
[4] = The drug is tested on Z-020 corresponding to rabbit gut metagenome with ENA study accession number: PRJEB37062 and ENA sample accession number: ERS12561819 for biotransformation under anaerobic condition. The drug concentrations were measured over 9 timepoints collected between 0 and 24 hours of incubation by liquid-chromatography-coupled mass spectrometry (LC–MS); conditions: 2 µM
[5] = The drug is tested on WLS-039 corresponding to human gut metagenome with ENA study accession number: PRJEB37062 and ENA sample accession number: ERS12561746 for biotransformation under anaerobic condition. The drug concentrations were measured over 9 timepoints collected between 0 and 24 hours of incubation by liquid-chromatography-coupled mass spectrometry (LC–MS); conditions: 2 µM
[6] = The drug is tested on Z-008 corresponding to metagenome with ENA study accession number: PRJEB37062 and ENA sample accession number: ERS12561808 for biotransformation under anaerobic condition. The drug concentrations were measured over 9 timepoints collected between 0 and 24 hours of incubation by liquid-chromatography-coupled mass spectrometry (LC–MS); conditions: 2 µM
[7] = The drug is tested on Z-022 corresponding to mouse gut metagenome with ENA study accession number: PRJEB37062 and ENA sample accession number: ERS12561821 for biotransformation under anaerobic condition. The drug concentrations were measured over 9 timepoints collected between 0 and 24 hours of incubation by liquid-chromatography-coupled mass spectrometry (LC–MS); conditions: 2 µM
[8] = The drug is tested on Z-029 corresponding to rat gut metagenome with ENA study accession number: PRJEB37062 and ENA sample accession number: ERS12561828 for biotransformation under anaerobic condition. The drug concentrations were measured over 9 timepoints collected between 0 and 24 hours of incubation by liquid-chromatography-coupled mass spectrometry (LC–MS); conditions: 2 µM
[9] = human gut metagenome, 24 h, 2 µM; remark: listed apart in the source
[10] = human gut metagenome, 24 h, 2 µM; remark: listed apart in the source
[11] = The drug is tested on WLS-098 corresponding to human gut metagenome with ENA study accession number: PRJEB37062 and ENA sample accession number: ERS12561754 for biotransformation under anaerobic condition. The drug concentrations were measured over 9 timepoints collected between 0 and 24 hours of incubation by liquid-chromatography-coupled mass spectrometry (LC–MS); conditions: 2 µM
[12] = The drug is tested on WLS-073 corresponding to human gut metagenome with ENA study accession number: PRJEB37062 and ENA sample accession number: ERS12561749 for biotransformation under anaerobic condition. The drug concentrations were measured over 9 timepoints collected between 0 and 24 hours of incubation by liquid-chromatography-coupled mass spectrometry (LC–MS); conditions: 2 µM
[13] = human gut metagenome, 24 h, 2 µM; remark: listed apart in the source
[14] = The drug is tested on WLS-038 corresponding to human gut metagenome with ENA study accession number: PRJEB37062 and ENA sample accession number: ERS12561745 for biotransformation under anaerobic condition. The drug concentrations were measured over 9 timepoints collected between 0 and 24 hours of incubation by liquid-chromatography-coupled mass spectrometry (LC–MS); conditions: 2 µM
[15] = human gut metagenome, 24 h, 2 µM; remark: listed apart in the source
[16] = The drug is tested on Z-018 corresponding to pig gut metagenome with ENA study accession number: PRJEB37062 and ENA sample accession number: ERS12561817 for biotransformation under anaerobic condition. The drug concentrations were measured over 9 timepoints collected between 0 and 24 hours of incubation by liquid-chromatography-coupled mass spectrometry (LC–MS); conditions: 2 µM
[17] = The drug is tested on WLS-310 corresponding to human gut metagenome with ENA study accession number: PRJEB37062 and ENA sample accession number: ERS12561785 for biotransformation under anaerobic condition. The drug concentrations were measured over 9 timepoints collected between 0 and 24 hours of incubation by liquid-chromatography-coupled mass spectrometry (LC–MS); conditions: 2 µM
[18] = The drug is tested on Z-028 corresponding to mouse gut metagenome with ENA study accession number: PRJEB37062 and ENA sample accession number: ERS12561827 for biotransformation under anaerobic condition. The drug concentrations were measured over 9 timepoints collected between 0 and 24 hours of incubation by liquid-chromatography-coupled mass spectrometry (LC–MS); conditions: 2 µM
[19] = human gut metagenome, 24 h, 2 µM; remark: listed apart in the source
[20] = The drug is tested on WLS-069 corresponding to human gut metagenome with ENA study accession number: PRJEB37062 and ENA sample accession number: ERS12561748 for biotransformation under anaerobic condition. The drug concentrations were measured over 9 timepoints collected between 0 and 24 hours of incubation by liquid-chromatography-coupled mass spectrometry (LC–MS); conditions: 2 µM
Further: call rule not given here.

SMILES	Bacterial Biotransformation [1]	Bacterial Biotransformation [2]	Bacterial Biotransformation [3]	Bacterial Biotransformation [4]	Bacterial Biotransformation [5]	Bacterial Biotransformation [6]	Bacterial Biotransformation [7]	Bacterial Biotransformation [8]	Bacterial Biotransformation [9]	Bacterial Biotransformation [10]	Bacterial Biotransformation [11]	Bacterial Biotransformation [12]	Bacterial Biotransformation [13]	Bacterial Biotransformation [14]	Bacterial Biotransformation [15]	Bacterial Biotransformation [16]	Bacterial Biotransformation [17]	Bacterial Biotransformation [18]	Bacterial Biotransformation [19]	Bacterial Biotransformation [20]
Br.CN1CCC[C@@H]1Cc1c[nH]c2ccc(CCS(=O)(=O)c3ccccc3)cc12 [ELETRIPTAN HYDROBROMIDE]	Compound NOT metabolized	Compound metabolized	Compound NOT metabolized	Compound NOT metabolized	Compound NOT metabolized	Compound NOT metabolized	Compound NOT metabolized	Compound NOT metabolized	Compound NOT metabolized	Compound metabolized	Compound metabolized	Compound metabolized	Compound metabolized	Compound NOT metabolized	Compound NOT metabolized	Compound NOT metabolized	Compound metabolized	Compound NOT metabolized	Compound NOT metabolized	Compound metabolized
CCOc1ccc2nc(S(N)(=O)=O)sc2c1 [ETHOXZOLAMIDE]	Compound NOT metabolized	Compound NOT metabolized	Compound NOT metabolized	Compound NOT metabolized	Compound NOT metabolized	Compound NOT metabolized	Compound NOT metabolized	Compound NOT metabolized	Compound NOT metabolized	Compound NOT metabolized	Compound metabolized	Compound NOT metabolized	Compound NOT metabolized	Compound NOT metabolized	Compound NOT metabolized	Compound NOT metabolized	Compound NOT metabolized	Compound NOT metabolized	Compound NOT metabolized	Compound NOT metabolized
CCc1cccc2c3c([nH]c12)C(CC)(CC(=O)O)OCC3 (stereo not given) [ETODOLAC]	Compound NOT metabolized	Compound metabolized	Compound metabolized	Compound NOT metabolized	Compound metabolized	Compound NOT metabolized	Compound NOT metabolized	Compound NOT metabolized	Compound NOT metabolized	Compound metabolized	Compound metabolized	Compound NOT metabolized	Compound metabolized	Compound metabolized	Compound metabolized	Compound metabolized	Compound metabolized	Compound NOT metabolized	Compound metabolized	Compound metabolized
CC1Cc2ccccc2N1NC(=O)c1ccc(Cl)c(S(N)(=O)=O)c1 (stereo not given) [INDAPAMIDE]	Compound NOT metabolized	Compound NOT metabolized	Compound NOT metabolized	Compound NOT metabolized	Compound NOT metabolized	Compound NOT metabolized	Compound NOT metabolized	Compound NOT metabolized	Compound NOT metabolized	Compound NOT metabolized	Compound NOT metabolized	Compound NOT metabolized	Compound NOT metabolized	Compound NOT metabolized	Compound NOT metabolized	Compound NOT metabolized	Compound NOT metabolized	Compound NOT metabolized	Compound NOT metabolized	Compound NOT metabolized
COc1ccc2c(c1)c(CC(=O)O)c(C)n2C(=O)c1ccc(Cl)cc1 [INDOMETHACIN]	Compound NOT metabolized	Compound metabolized	Compound metabolized	Compound metabolized	Compound metabolized	Compound NOT metabolized	Compound NOT metabolized	Compound NOT metabolized	Compound metabolized	Compound metabolized	Compound metabolized	Compound metabolized	Compound NOT metabolized	Compound metabolized	Compound metabolized	Compound metabolized	Compound metabolized	Compound NOT metabolized	Compound NOT metabolized	Compound metabolized

From ChEMBL document CHEMBL5724914, “Linking interpersonal differences in gut microbiota composition and drug biotransformation activity” (2024)
